Source: patent US20070184098A1, “Esters of flavonoids with w-substituted c6-c22 fatty acids” (priority 2003, published 2007)
Several values for one entry are separate records, joined by “and”; a condition that tells them apart may be missing. Equal entries are not always repeated. Where two headings read alike, the source gives them in different places.

Legend:
Human fibroblasts = assay: UVA cytophotoprotection, anti-oxidative effect (MDA released, cell proteins, GSH) on UVA-irradiated human fibroblasts; type: cell-based; details: UVA 20 J/cm2; for Cell GSH/protein ratio: irradiated control = 78, not irradiated = 100; for MDA released: irradiated control = 100, not irradiated = 0; for Cell proteins: irradiated control = 107, not irradiated = 100
Description: The cytoprotection against UVA irradiation has been evaluated by a test on human fibroblasts because UVA radiation penetrates through the epidermis until the dermis where it induces oxidative stress, mainly by activation of photosensitising biological components, which catalyse the formation of ROS like anion superoxide, hydrogen peroxide and singlet oxygen, and lipoperoxydation of the cell membrane. These oxidative stress effects are evaluated in vitro due to measuring of the level of released MDA (malondialdehyde) and of intracellular GSH (reduced glutathion) (Morliere P., Moisan A., Santus R., Huppe G., Mazière J. C., Dubertret L.: UV-A induced lipid peroxydation in cultured human fibroblasts Biochim. Biophys. Acta (1991) 1084, 3:261-269).
The lipoperoxides formed after UVA irradiation undergo a decay into malondialdehyde which can form cross-links between many biological molecules like proteins with inhibition of enzymes and nucleic bases with risk of mutagenesis. Glutathione (GSH) is a peptide produced by the cells to protect them from oxidative stress or certain pollutants like mercury or lead. An increase in the GSH level enhances the activity of glutathion-S-transferase, a detoxification enzyme. GSH is evaluated according to the method of Hissin (Hissin P. J., Hilf R. A fluorometric method for determination of oxydised and reduced Glutathione in tissues. Analytical Biochemistry (1977) vol 74, pp 214-226).
Human fibroblasts were inoculated with growth medium (DMEM+FCS) and incubated 3 days at 37° C., with 5% CO2. The growth medium was then exchanged with medium containing an ingredient to be tested and incubated 2 days at 37° C. with CO2=5%. After an exchange of medium with balanced salt solution, the cell culture was irradiated by UVA 20 J/cm^2. Cell proteins and GSH were measured, and MDA released in the supernatant was determined spectrophotometrically.

Human keratinocytes = assay: UVB cytophotoprotection and anti-inflammatory effect (DNA, LDH and PGE2 released) on UVB-irradiated human keratinocytes; type: cell-based; details: UVB 50 mJ/cm2; for Keratinocytes DNA: irradiated control = 23, not irradiated = 100; for LDH released / PGE2 released: irradiated control = 100, not irradiated = 0
Source text: The arachidonic cascade is an important mechanism of cutaneous inflammation. This cascade may be induced by several factors, particularly by UVB irradiation. UVB induces the inflammatory response by activation of phospholipase A2 (PLA2), which results in a release of arachidonic acid from cell membranes. Then other specific enzymes (so called cyclo-oxygenases) transform arachidonic acid in active components called prostaglandin (PG) which are secreted from the cells. The fixation of certain prostaglandins (PGE2) on specific skin receptors is followed by redness and swelling on human skin. On cultured human cells, these UVB effects on cell's membrane are associated with a release of a cytoplasmic enzyme into the supernatant medium: Lactate Dehydrogenase or LDH.
Human keratinocytes were inoculated with growth medium (DMEM+FCS) and incubated 3 days at 37° C. and 5% CO2. The growth medium was then exchanged with balanced salt solution containing the ingredient to be tested, the cell culture was irradiated by UVB 50 mJ/cm^2 (DUKE GL40E lamp). After 1 day of incubation at 37° C. with 5% CO2, LDH and PGE2 released in the medium were determined, and cellular DNA was measured using a fluorescent probe to determine the cell viability.

[1] = Solubility in hydrophilic and lipophilic solvent by HPLC; type: physicochemical; details: stirring 1 hour at room temperature; for solubility at 1 h: thermodynamic from solid
Description: The solubility was determined by HPLC measurement after stirring during 1 hour at room temperature.

Lipoxygenase = assay: Anti-free radical activity: superoxide anions released by lipoxygenase, Luminol probe; type: biochemical; details: mean of 2 assays; lipoxygenase with unsaturated fatty acid substrate
Description: The anti-free radical (anti-FR) activity has been evaluated by biochemical tests to address the potential for scavenging superoxide anion (O2°).
Lipoxygenase was incubated with a specific substrate (unsaturated fatty acid) and the flavonoid esters. Then the rate of released superoxide anions was determined using Luminol luminescent probe to calculate the IC50 (mean of 2 assays).

| Molecule | Solubility in butylene glycol [1] | Solubility in octyl-dodecanol [1] | IC50 (w/v), released superoxide anions (Lipoxygenase) [w/v] | Cell GSH/protein ratio (Human fibroblasts; dose 0.003 % w/v) [% against control] | MDA released (Human fibroblasts; dose 0.003 % w/v) [% against control] | Cell proteins (Human fibroblasts; dose 0.003 % w/v) [% against control] | Cell GSH/protein ratio (Human fibroblasts; dose 0.01 % w/v) [% against control] | MDA released (Human fibroblasts; dose 0.01 % w/v) [% against control] | Cell proteins (Human fibroblasts; dose 0.01 % w/v) [% against control] | Keratinocytes DNA (Human keratinocytes; dose 0.003 % w/v) [% against control] | LDH released (Human keratinocytes; dose 0.003 % w/v) [% against control] | PGE2 released (Human keratinocytes; dose 0.003 % w/v) [% against control] | Keratinocytes DNA (Human keratinocytes; dose 0.01 % w/v) [% against control] | LDH released (Human keratinocytes; dose 0.01 % w/v) [% against control] | PGE2 released (Human keratinocytes; dose 0.01 % w/v) [% against control] | Cell GSH/protein ratio (Human fibroblasts; dose 0.001 % w/v) [% against control] | MDA released (Human fibroblasts; dose 0.001 % w/v) [% against control] | Cell proteins (Human fibroblasts; dose 0.001 % w/v) [% against control] | Keratinocytes DNA (Human keratinocytes; dose 0.001 % w/v) [% against control] | LDH released (Human keratinocytes; dose 0.001 % w/v) [% against control] | other results |
| --- | --- | --- | --- | --- | --- | --- | --- | --- | --- | --- | --- | --- | --- | --- | --- | --- | --- | --- | --- | --- | --- |
| CC1OC(OCC2OC(Oc3c(-c4ccc(O)c(O)c4)oc4cc(O)cc(O)c4c3=O)C(O)C(O)C2O)C(O)C(O)C1OC(=O)CCCCCCCCCCS (stereo not drawn) [Rutin 11-mercaptoundecanoate] | 54.5 g/L and 67.2 mM | 0.15 g/L and 0.19 mM |  | 283 | 0 | 89 |  |  |  |  |  |  |  |  |  | 131 | 34 | 94 |  |  | Keratinocytes DNA (Human keratinocytes; dose 0.0001 % w/v): 44 % against control; LDH released (Human keratinocytes; dose 0.0001 % w/v): 75 % against control; PGE2 released (Human keratinocytes; dose 0.0001 % w/v): 26 % against control; Keratinocytes DNA (Human keratinocytes; dose 0.0003 % w/v): 41 % against control; LDH released (Human keratinocytes; dose 0.0003 % w/v): 92 % against control; PGE2 released (Human keratinocytes; dose 0.0003 % w/v): 12 % against control |
| C[C@@H]1O[C@@H](OC[C@H]2O[C@@H](Oc3c(-c4ccc(O)c(O)c4)oc4cc(O)cc(O)c4c3=O)[C@H](O)[C@@H](O)[C@@H]2O)[C@H](O)[C@H](O)[C@H]1O [Rutin, reference compound] |  |  |  | 72 | 79 | 126 | 71 | 72 | 128 |  |  |  |  |  |  |  |  |  |  |  | Keratinocytes DNA (Human keratinocytes; dose 0.03 % w/v): 69 % against control; LDH released (Human keratinocytes; dose 0.03 % w/v): 17 % against control; PGE2 released (Human keratinocytes; dose 0.03 % w/v): 0 % against control; Keratinocytes DNA (Human keratinocytes; dose 0.1 % w/v): 73 % against control; LDH released (Human keratinocytes; dose 0.1 % w/v): 18 % against control; PGE2 released (Human keratinocytes; dose 0.1 % w/v): 10 % against control; solubility at 1 h ([1]; butylene glycol, organic solvent or mixture, read-out: Solubility in butylene glycol): 22600 µg/mL and 37100 µM; solubility at 1 h ([1]; octyl-dodecanol, oil or lipid, read-out: Solubility in octyl-dodecanol): 30 µg/mL and 50 µM; solubility at 1 h ([1]; water, read-out: Solubility in water): 160 µg/mL and 270 µM |
| CC1OC(OCC2OC(Oc3c(-c4ccc(O)c(O)c4)oc4cc(O)cc(O)c4c3=O)C(O)C(O)C2O)C(O)C(O)C1OC(=O)CCCCCCCCCCCCCCC(=O)OC1C(C)OC(OCC2OC(Oc3c(-c4ccc(O)c(O)c4)oc4cc(O)cc(O)c4c3=O)C(O)C(O)C2O)C(O)C1O (stereo not drawn) [Dirutin hexadecandioate, dirutin hexadecandioate] |  |  | 0.0028 | 154 | 9 | 149 |  |  |  | 35 | 33 | 1 |  |  |  | 98 | 39 | 138 | 38 | 44 | PGE2 released (Human keratinocytes; dose 0.001 % w/v): 3 % against control |

Continued, in another order:

| Solubility in butylene glycol [1] | Solubility in octyl-dodecanol [1] | IC50 (w/v), released superoxide anions (Lipoxygenase) [w/v] | Molecule | Cell GSH/protein ratio (Human fibroblasts; dose 0.003 % w/v) [% against control] | MDA released (Human fibroblasts; dose 0.003 % w/v) [% against control] | Cell proteins (Human fibroblasts; dose 0.003 % w/v) [% against control] | Cell GSH/protein ratio (Human fibroblasts; dose 0.01 % w/v) [% against control] | MDA released (Human fibroblasts; dose 0.01 % w/v) [% against control] | Cell proteins (Human fibroblasts; dose 0.01 % w/v) [% against control] | Keratinocytes DNA (Human keratinocytes; dose 0.003 % w/v) [% against control] | LDH released (Human keratinocytes; dose 0.003 % w/v) [% against control] | PGE2 released (Human keratinocytes; dose 0.003 % w/v) [% against control] | Keratinocytes DNA (Human keratinocytes; dose 0.01 % w/v) [% against control] | LDH released (Human keratinocytes; dose 0.01 % w/v) [% against control] | PGE2 released (Human keratinocytes; dose 0.01 % w/v) [% against control] | Cell GSH/protein ratio (Human fibroblasts; dose 0.001 % w/v) [% against control] | MDA released (Human fibroblasts; dose 0.001 % w/v) [% against control] | Cell proteins (Human fibroblasts; dose 0.001 % w/v) [% against control] | Keratinocytes DNA (Human keratinocytes; dose 0.001 % w/v) [% against control] | LDH released (Human keratinocytes; dose 0.001 % w/v) [% against control] | other results |
| --- | --- | --- | --- | --- | --- | --- | --- | --- | --- | --- | --- | --- | --- | --- | --- | --- | --- | --- | --- | --- | --- |
| 39.4 g/L and 44.7 mM | 0.13 g/L and 0.15 mM | 0.0036 | CC1OC(OCC2OC(Oc3c(-c4ccc(O)c(O)c4)oc4cc(O)cc(O)c4c3=O)C(O)C(O)C2O)C(O)C(O)C1OC(=O)CCCCCCCCCCCCCCC(=O)O (stereo not drawn) [Rutin hexadecandioate, rutin hexadecandioate] | 101 | 46 | 129 | 75 | 21 | 178 | 24 | 53 | 2 | 39 | 19 | 0 |  |  |  |  |  | Solubility in water [1]: 0.38 g/L and 0.43 mM |
|  |  | 0.0025 | CC1OC(OCC2OC(Oc3c(-c4ccc(O)c(O)c4)oc4cc(O)cc(O)c4c3=O)C(O)C(O)C2O)C(O)C(O)C1OC(=O)CCCCCCCC(=O)O (stereo not drawn) [Rutin azelaiate] | 64 | 64 | 165 |  |  |  | 51 | 45 | 28 | 53 | 27 | 19 | 67 | 78 | 144 |  |  |  |
|  |  | 0.0034 | Rutin octadecandioate | 122 | 15 | 133 |  |  |  | 49 | 31 | 3 |  |  |  | 73 | 46 | 139 | 23 | 73 | PGE2 released (Human keratinocytes; dose 0.001 % w/v): 28 % against control |
